Experimental data: ChEMBL document CHEMBL1909046, “DrugMatrix in vitro pharmacology data”

Legend:
[1] = DRUGMATRIX: Sodium/nucleoside co-transporter radioligand binding (ligand: nitrobenzylthioinosine); assay type: cell membranes, Cavia porcellus, Dunkin-Hartley, Cerebral cortex, Membrane; details: Not Active = under 50% inhibition at 10 µM
[2] = DRUGMATRIX: beta-Lactamase enzyme inhibition (substrate: Nitrocefin); design: species or system Bacillus cereus; details: Not Active = under 50% inhibition at 10 µM
[3] = DRUGMATRIX: Serotonin (5-Hydroxytryptamine) 5-HT3 radioligand binding (ligand: [3H] GR-65630); assay type: cell membranes, Membrane; details: hek293; Not Active = under 50% inhibition at 10 µM
Endothelin-1 receptor = target: T1, Endothelin-1 receptor (Homo sapiens, UniProt P25101); assay type: cell membranes, CHO-K1, Membrane; details: cho-k1; note: in other assays of this panel Not Active means under 50% inhibition at 10 µM
T1 sequence (P25101 whole entry): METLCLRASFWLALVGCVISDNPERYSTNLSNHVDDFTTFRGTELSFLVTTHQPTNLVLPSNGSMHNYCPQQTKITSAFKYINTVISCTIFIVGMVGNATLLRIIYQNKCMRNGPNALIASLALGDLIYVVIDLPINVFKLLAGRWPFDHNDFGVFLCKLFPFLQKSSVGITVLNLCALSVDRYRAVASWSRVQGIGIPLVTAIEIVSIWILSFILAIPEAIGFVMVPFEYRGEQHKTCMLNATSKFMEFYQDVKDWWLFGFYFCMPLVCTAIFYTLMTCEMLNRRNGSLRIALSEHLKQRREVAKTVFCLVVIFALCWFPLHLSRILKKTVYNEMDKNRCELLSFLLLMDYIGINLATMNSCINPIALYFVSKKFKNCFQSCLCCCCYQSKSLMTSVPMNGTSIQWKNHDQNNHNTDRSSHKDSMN

[4] = target: T2, 3-hydroxy-3-methylglutaryl-coenzyme A reductase (Homo sapiens, UniProt P04035); design: species or system Escherichia coli;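 note: enzyme inhibition assay of HMG-CoA reductase using radiolabeled [14C]HMG-CoA as substrate; in other assays of this panel Not Active means under 50% inhibition at 10 µM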
T2 sequence (P04035 whole entry): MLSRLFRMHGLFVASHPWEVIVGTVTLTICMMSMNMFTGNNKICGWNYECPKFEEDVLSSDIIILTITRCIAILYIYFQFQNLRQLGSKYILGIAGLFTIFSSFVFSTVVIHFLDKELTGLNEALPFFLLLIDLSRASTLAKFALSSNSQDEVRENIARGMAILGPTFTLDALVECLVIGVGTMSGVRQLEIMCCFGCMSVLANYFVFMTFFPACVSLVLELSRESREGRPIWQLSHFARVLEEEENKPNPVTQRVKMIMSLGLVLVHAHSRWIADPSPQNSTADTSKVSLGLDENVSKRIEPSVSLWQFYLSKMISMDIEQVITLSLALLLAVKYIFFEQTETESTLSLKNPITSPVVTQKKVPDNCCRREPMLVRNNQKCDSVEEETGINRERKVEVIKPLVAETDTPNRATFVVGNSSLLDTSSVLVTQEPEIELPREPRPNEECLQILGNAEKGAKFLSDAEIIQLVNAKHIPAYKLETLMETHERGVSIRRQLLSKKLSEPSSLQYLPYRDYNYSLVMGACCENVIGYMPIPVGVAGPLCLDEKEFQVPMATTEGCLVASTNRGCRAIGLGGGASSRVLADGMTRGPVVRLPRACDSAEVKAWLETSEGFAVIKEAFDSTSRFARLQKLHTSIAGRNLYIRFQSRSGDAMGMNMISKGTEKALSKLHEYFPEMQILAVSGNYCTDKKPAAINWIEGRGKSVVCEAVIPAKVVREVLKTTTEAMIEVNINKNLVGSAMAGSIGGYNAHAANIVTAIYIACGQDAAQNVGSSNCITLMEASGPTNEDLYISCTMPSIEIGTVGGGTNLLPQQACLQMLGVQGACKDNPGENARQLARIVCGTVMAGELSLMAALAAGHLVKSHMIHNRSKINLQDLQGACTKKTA

[5] = DRUGMATRIX: Nicotinic Acetylcholine radioligand binding (ligand: [125I] Epibatidine); assay type: cell membranes, Membrane; details: imr-32; Not Active = under 50% inhibition at 10 µM
[6] = target: Matrix metalloproteinase-9 (Homo sapiens, UniProt P14780); test: biochemical; assay type: cell-based;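 note: inhibition of isolated MMP-9 enzyme activity toward a synthetic peptide substrate, from the DrugMatrix protease screening panel; in other assays of this panel Not Active means under 50% inhibition at 10 µM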
Sequence of Matrix metalloproteinase-9 (P14780 whole entry): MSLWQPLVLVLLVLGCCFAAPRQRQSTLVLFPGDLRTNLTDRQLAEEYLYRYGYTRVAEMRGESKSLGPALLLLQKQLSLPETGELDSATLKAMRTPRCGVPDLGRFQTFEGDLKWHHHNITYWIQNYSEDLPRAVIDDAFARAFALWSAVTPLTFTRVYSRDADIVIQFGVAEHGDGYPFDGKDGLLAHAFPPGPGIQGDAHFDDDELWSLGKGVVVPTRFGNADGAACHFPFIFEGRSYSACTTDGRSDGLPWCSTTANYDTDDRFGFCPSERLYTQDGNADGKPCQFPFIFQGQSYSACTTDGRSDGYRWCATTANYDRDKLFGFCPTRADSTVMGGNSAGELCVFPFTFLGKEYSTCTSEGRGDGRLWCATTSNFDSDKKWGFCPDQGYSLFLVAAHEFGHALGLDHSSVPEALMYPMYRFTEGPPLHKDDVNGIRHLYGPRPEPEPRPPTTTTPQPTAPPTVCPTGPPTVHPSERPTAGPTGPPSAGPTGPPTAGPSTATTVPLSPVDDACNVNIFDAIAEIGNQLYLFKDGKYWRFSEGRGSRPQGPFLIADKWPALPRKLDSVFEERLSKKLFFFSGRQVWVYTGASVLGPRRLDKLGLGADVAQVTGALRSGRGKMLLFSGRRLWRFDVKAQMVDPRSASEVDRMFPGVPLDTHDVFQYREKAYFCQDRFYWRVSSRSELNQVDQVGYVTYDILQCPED

Adenosine receptor A2a = Adenosine receptor A2a (Homo sapiens, UniProt P29274); test: DRUGMATRIX: Adenosine A2A radioligand binding (ligand: […]); assay type: cell membranes, Membrane; details: hek293; Not Active = under 50% inhibition at 10 µM
Sequence of Adenosine receptor A2a (P29274 whole entry): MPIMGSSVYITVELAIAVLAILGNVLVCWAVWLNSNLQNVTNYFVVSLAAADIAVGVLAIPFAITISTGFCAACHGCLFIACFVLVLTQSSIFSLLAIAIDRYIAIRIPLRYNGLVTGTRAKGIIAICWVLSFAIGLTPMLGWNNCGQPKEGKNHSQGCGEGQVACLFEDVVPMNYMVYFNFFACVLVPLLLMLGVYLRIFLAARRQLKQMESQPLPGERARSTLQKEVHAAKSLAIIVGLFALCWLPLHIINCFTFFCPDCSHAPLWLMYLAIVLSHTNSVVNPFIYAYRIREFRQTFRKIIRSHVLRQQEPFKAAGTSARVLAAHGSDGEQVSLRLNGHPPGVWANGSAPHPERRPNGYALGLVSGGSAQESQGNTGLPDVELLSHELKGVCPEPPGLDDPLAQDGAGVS

Nc1nc2c(ncn2CCC(CO)CO)c(=O)[nH]1 [PENCICLOVIR]
Not Active: IC50 [1] | Ki [1] | IC50 [2] | Ki [2] | IC50 [3] | Ki [3] | IC50 (Endothelin-1 receptor) | IC50 [4] | IC50 [5] | Ki [5] | IC50 [6] | IC50 (Adenosine receptor A2a)

CCOc1ccc(NC(C)=O)cc1 [PHENACETIN]
Not Active: IC50 [1] | Ki [1] | IC50 [2] | Ki [2] | IC50 [3] | Ki [3] | IC50 (Endothelin-1 receptor) | IC50 [4] | IC50 [5] | Ki [5] | IC50 [6] | IC50 (Adenosine receptor A2a)

Cc1cc(C(C#N)c2ccc(Cl)cc2)c(Cl)cc1NC(=O)c1cc(I)cc(I)c1O (centres undefined) [CLOSANTEL]
Not Active: IC50 [1] | Ki [1] | IC50 [2] | Ki [2] | IC50 [3] | Ki [3] | IC50 (Endothelin-1 receptor) | IC50 [4] | IC50 [5] | Ki [5] | IC50 [6] | IC50 (Adenosine receptor A2a)

C[C@]12CC[C@@H]3c4ccc(O)cc4CC[C@H]3[C@@H]1CCC2=O [ESTRONE]
Not Active: IC50 [1] | Ki [1] | IC50 [2] | Ki [2] | IC50 [3] | Ki [3] | IC50 (Endothelin-1 receptor) | IC50 [4] | IC50 [5] | Ki [5] | IC50 [6] | IC50 (Adenosine receptor A2a)

NC1=NC(=O)C(c2ccccc2)O1 (centres undefined) [PEMOLINE]
Not Active: IC50 [1] | Ki [1] | IC50 [2] | Ki [2] | IC50 [3] | Ki [3] | IC50 (Endothelin-1 receptor) | IC50 [4] | IC50 [5] | Ki [5] | IC50 [6] | IC50 (Adenosine receptor A2a)

CN(C)C(=O)Oc1cc(OC(=O)N(C)C)cc(C(O)CNC(C)(C)C)c1 (centres undefined) [BAMBUTEROL]
Not Active: IC50 [1] | Ki [1] | IC50 [2] | Ki [2] | IC50 [3] | Ki [3] | IC50 (Endothelin-1 receptor) | IC50 [4] | IC50 [5] | Ki [5] | IC50 [6] | IC50 (Adenosine receptor A2a)

C[C@H]1c2cccc(O)c2C(=O)C2=C(O)[C@]3(O)C(=O)C(C(N)=O)=C(O)[C@@H](N(C)C)[C@@H]3[C@@H](O)[C@@H]21.O [DOXYCYCLINE]
Not Active: IC50 [1] | Ki [1] | IC50 [2] | Ki [2] | IC50 [3] | Ki [3] | IC50 (Endothelin-1 receptor) | IC50 [4] | IC50 [5] | Ki [5] | IC50 [6] | IC50 (Adenosine receptor A2a)
